Test results: patent publication US12673926B2, “Tetrazine compounds for in vivo imaging” (KØBENHAVNS UNIVERSITET, priority 2018, dated 2026)

Assays:
[1] = Rate constant measurements (stopped-flow, pseudo-first order); settings: at 25° C.
Description: Based on these encouraging results, a study was performed to investigate whether the identified labeling conditions could be applied to Tzs that are more reactive. In this respect, Tz's with stepwise increased reactivity have been tested. […] Synthesis of respective reference compounds and precursors was completed in the same manner as discussed before. Respective second-order rate constants were determined via stopped-flow measurements. […] Radiolabeling was studied using the best aliquot conditions identified in our previous experiments. RCC for [^18F]7, [18F]8 and [^18F]9 were 35%, 30%, and 33%, respectively.
[…] Measurements were performed using a SX20 stopped flow photometer (Applied Photophysics, UK) equipped with a 360 nm LED light source and a photomultiplier type R374 in combination with a 400 nm longpass filter as detector.

TCO click ability = settings: TCO-KSMO in PBS, TLC
Description: To a solution of TCO-KSMO (the polymer) 500 μL (1 mg/mL) PBS was added 100 μL of the formulated tetrazine.
In given time intervals, 2 μL of the solution was withdrawn and quenched with 20 μL of a 3 mg/mL bispyridine-tetrazine solution. TLC (EtOAc) determined the fraction of tetrazines reacted to the TCO. (tetrazine; front, 1,4 adduct; baseline)

[2] = TCO click ability after incubation in blood; design: species or system mice; settings: KSMO 1 h RT
Description: (§1) Blood stability was tested by mixing 250 μL mice whole blood with 250 μL of the formulated Tz, the mixture was heated and shaken at 37° C. At given time points 1, 2, 3, 5, 10, 20, 60 and 180 min, 20 μL were withdrawn and cooled to 0° C. At the same time points, 20 μL were added to a 20 μL of a solution of 1 mg/mL KSMO (TCO-Polymer) in PBS and left at RT for 1 h.
(§2) The mixtures were then centrifuged at 4200 rpm for 3 min, before ACN (40 μL) was added and centrifuged again for 3 min at 4200 rpm. The supernatant was withdrawn and analyzed with TLC and/or HPLC.

[3] = Blood stability (TLC data); format: in vitro ADME; settings: mice whole blood, 37° C., 0 min
[4] = Blood stability (TLC data); format: in vitro ADME; settings: mice whole blood, 37° C.
Description: as §1, §2

[5] = Pretargeted PET/CT imaging with TCO-BP pretreatment; format: in vivo, Balb/c mice; settings: BP-TCO pretreated mice vs controls; i.v.; 60 min dynamic PET
Description: All animal studied were approved by the Danish Animal Welfare Council, ministry of Justice. Five weeks old female Balb/c mice (Charles River) were acclimatized for one week with access to water and chow ad libitum. Trans-cyclooctene functionalized bisphosphonates (TCO-BP's) (100 μg. 100 μl PBS) were injected i.v. (n=2), and 1 hour later animals were administered i.v. with [^18F]9 (ca 4MBq) via the tail vein.
The animals were scanned on a dedicated small animal PET/CT scanner (Siemens) during which they were kept anesthetized by breathing sevoflurane and their temperature maintained by heating pad. Immediately after injection of [^18F]9, the animals were moved to a small animal PET/CT scanner and a 60 min dynamic PET acquisition (energy window of 350-650 KeV and a time resolution of 6 ns) was performed followed by a CT scan (360 projections, 65 kV, 500 ρA and 400 ms). Sinograms from PET scans were framed and reconstructed using a 3-dimensional maximum a posteriori algorithm with CT-based attenuation correction. PET and CT images were co-registered and analysed using Inveon software (Siemens). The mean percentage of injected dose per grams (% ID/g) in different tissues was extracted by manually creating regions of interest on fused PET/CT images.
The bioorthogonal chemistry employed is illustrated in FIG. 1. […]

[6] = after 0 min in mice whole blood at 37° C.
[7] = after 1 min in mice whole blood at 37° C.
[8] = after 2 min in mice whole blood at 37° C.
[9] = after 3 min in mice whole blood at 37° C.
[10] = after 5 min in mice whole blood at 37° C.
[11] = after 10 min in mice whole blood at 37° C.
[12] = after 20 min in mice whole blood at 37° C.
[13] = after 60 min in mice whole blood at 37° C.
[14] = after 180 min in mice whole blood at 37° C.

Stability [3] [%] | Stability ([4]; 1 min) [%] | Stability ([4]; 2 min) [%] | Stability ([4]; 3 min) [%] | Stability ([4]; 5 min) [%] | SMILES | Second-order rate constant k2 [1] [M⁻¹ s⁻¹] | fraction of tetrazines reacted to the TCO (TCO click ability; 30 sec) [%] | fraction of tetrazines reacted to the TCO (TCO click ability; 1 min) [%] | fraction of tetrazines reacted to the TCO (TCO click ability; 2 min) [%] | fraction of tetrazines reacted to the TCO (TCO click ability; 3 min) [%] | fraction of tetrazines reacted to the TCO (TCO click ability; 5 min) [%] | TCO click ability [2, 6] [%] | TCO click ability [2, 7] [%] | TCO click ability [2, 8] [%] | TCO click ability [2, 9] [%] | TCO click ability [2, 10] [%] | TCO click ability [2, 11] [%] | TCO click ability [2, 12] [%] | TCO click ability [2, 13] [%] | TCO click ability [2, 14] [%] | also measured
– | – | – | – | – | Cc1nnc(-c2ccc([18F])cc2)nn1 [[^18F]6] | 2.25 | 100 | 100 | 100 | 100 | 100 | – | – | – | – | – | – | – | – | – | –
94 | 95 | 96 | 95 | 95 | Cc1nnc(-c2cccc([18F])c2)nn1 [[^18F]7] | – | 100 | 100 | 100 | 100 | 100 | 100 | 100 | 100 | 100 | 100 | 100 | 100 | 100 | 100 | Stability ([4]; 10 min): 96%; Stability ([4]; 20 min): 96%; Stability ([4]; 60 min): 96%; Stability ([4]; 180 min): 77%
90 | 72 | 85 | 89 | 88 | [18F]c1ccc(-c2nncnn2)cc1 [[^18F]8] | 159 | – | 100 | 100 | 100 | 100 | 100 | 100 | 100 | 100 | 100 | 100 | 100 | 100 | 100 | Stability ([4]; 10 min): 90%; Stability ([4]; 20 min): 89%; Stability ([4]; 60 min): 88%; Stability ([4]; 180 min): 82%
– | – | – | – | – | [18F]c1cccc(-c2nncnn2)c1 [[^18F]9] | 222 | 100 | 100 | 100 | 100 | – | – | – | – | – | – | – | – | – | – | PET uptake in bones (knee), the target region of BP-TCOs, compared to controls [5]: higher uptake; PET uptake in control region (the heart), treated vs non-treated mice [5]: no differences could be detected; fraction of tetrazines reacted to the TCO (TCO click ability; 15 sec): 100%
